ChEMBL document CHEMBL1130933, “Structure-based design of N-[2-(1-piperidinylethyl)]-N'-[2-(5-bromopyridyl)]-thiourea and N-[2-(1-piperazinylethyl)]-N'-[2-(5-bromopyridyl)]-thiourea as potent non-nucleoside inhibitors of HIV-1 reverse transcriptase” (Bioorg Med Chem Lett, 1998)

How the values were obtained:
Format in all cases: functional
[1] = Inhibitory effect on p24 production in HIV-infected peripheral blood mononuclear cells.; conditions: Homo sapiens
[2] = Selective index was evaluated from inhibitory concentrations of compound
[3] = Compound was evaluated for cellular proliferation (on viability of peripheral blood mononuclear cells) using microculture tetrazolium assay (MTA).; conditions: Homo sapiens

IC50 [1]	Structure (SMILES)	Selectivity index [2]	IC50 [3]
7 nM	S=C(NCCc1ccccn1)Nc1ccc(Br)cn1 [TROVIRDINE]	> 10000	> 100 µM
< 1 nM	S=C(NCCN1CCCCC1)Nc1ccc(Br)cn1	> 100000	> 100 µM
2 nM	S=C(NCCN1CCNCC1)Nc1ccc(Br)cn1	> 50000	> 100 µM

Structure (SMILES)	IC50 [1]	Selectivity index [2]	IC50 [3]
Cc1cn([C@H]2C[C@H](N=[N+]=[N-])[C@@H](CO)O2)c(=O)[nH]c1=O [ZIDOVUDINE]	6 nM	–	50 µM
